In ChEMBL document CHEMBL5705893, “Targeting the mitotic checkpoint for cancer therapy with NMS-P715, an inhibitor of MPS1 kinase” (Cancer Res, 2010) one finds EC50 and IC50 data, which are given here for three molecules.

Experiment [1] concerns the target T1, Dual specificity protein kinase TTK (Homo sapiens, UniProt P33981).
T1 sequence (P33981 whole entry): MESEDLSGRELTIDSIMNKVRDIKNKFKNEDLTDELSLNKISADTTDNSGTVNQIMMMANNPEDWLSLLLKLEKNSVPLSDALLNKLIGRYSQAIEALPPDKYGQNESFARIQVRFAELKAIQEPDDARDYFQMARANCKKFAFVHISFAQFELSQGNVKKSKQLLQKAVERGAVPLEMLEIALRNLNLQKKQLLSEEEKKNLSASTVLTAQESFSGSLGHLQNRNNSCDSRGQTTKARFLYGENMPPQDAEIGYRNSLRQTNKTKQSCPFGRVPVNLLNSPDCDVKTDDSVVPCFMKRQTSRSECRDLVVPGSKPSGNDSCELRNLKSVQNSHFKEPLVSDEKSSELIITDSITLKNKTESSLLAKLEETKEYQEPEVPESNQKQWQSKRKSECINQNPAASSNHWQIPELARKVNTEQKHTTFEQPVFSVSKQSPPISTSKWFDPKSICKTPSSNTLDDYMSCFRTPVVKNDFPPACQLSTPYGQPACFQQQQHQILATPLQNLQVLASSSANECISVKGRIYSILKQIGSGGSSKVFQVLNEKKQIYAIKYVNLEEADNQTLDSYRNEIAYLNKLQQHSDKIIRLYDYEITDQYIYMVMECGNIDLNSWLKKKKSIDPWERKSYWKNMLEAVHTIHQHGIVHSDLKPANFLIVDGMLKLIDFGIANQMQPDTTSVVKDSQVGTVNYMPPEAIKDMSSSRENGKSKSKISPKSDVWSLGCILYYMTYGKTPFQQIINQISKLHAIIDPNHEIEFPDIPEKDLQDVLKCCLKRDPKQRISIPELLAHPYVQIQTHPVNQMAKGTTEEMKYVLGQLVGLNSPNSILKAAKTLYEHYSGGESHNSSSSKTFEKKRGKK
Kind of experiment: Inhibition of MPS1 in human taxol-arrested U2OS cells assessed as effect on histone H3 phosphorylation at ser10 residue incubated for 2 hrs by arrayscan analysis. Type of experiment: cell-based.

Experiment [2] has as its target Tyrosine-protein kinase Lck (Homo sapiens, UniProt P06239). Kind of experiment: Inhibition of recombinant LCK (unknown origin).
The target of experiment [3] is Insulin receptor (Homo sapiens, UniProt P06213). Briefly: Inhibition of recombinant IR (unknown origin).
For experiment [4], the target named is Focal adhesion kinase 1 (Homo sapiens, UniProt Q05397). Kind of experiment: Inhibition of recombinant FAK (unknown origin).
In experiment [5] the target is Serine/threonine-protein kinase pim-1 (Homo sapiens, UniProt P11309). Briefly: Inhibition of recombinant PIM1 (unknown origin).
In experiment [6] the target is Activated CDC42 kinase 1 (Homo sapiens, UniProt Q07912). Briefly: Inhibition of recombinant ACK1 (unknown origin).
In experiment [7] the target is Serine/threonine-protein kinase PLK1 (Homo sapiens, UniProt P53350). Briefly: Inhibition of recombinant PLK1 (unknown origin).
The nature of experiment [8]: Inhibition of recombinant AUR2 (unknown origin). Further details: species or system Homo sapiens.
Experiment [9] is described as follows: Inhibition of recombinant PDGFR (unknown origin). Also noted: species or system Homo sapiens.
The target of experiment [10] is High affinity nerve growth factor receptor (Homo sapiens, UniProt P04629). Briefly: Inhibition of recombinant TRKA (unknown origin).
The target of experiment [11] is Receptor-type tyrosine-protein kinase FLT3 (Homo sapiens, UniProt P36888). Kind of experiment: Inhibition of recombinant FLT3 (unknown origin).
Experiment [12] has as its target T1, Dual specificity protein kinase TTK. Briefly: Inhibition of recombinant MPS1 (unknown origin).
Experiment [13] concerns the target Mitogen-activated protein kinase 1 (Homo sapiens, UniProt P28482). Kind of experiment: Inhibition of recombinant ERK2 (unknown origin).
Experiment [14] concerns the target Serine/threonine-protein kinase pim-2 (Homo sapiens, UniProt Q9P1W9). Briefly: Inhibition of recombinant PIM2 (unknown origin).
In experiment [15] the target is Protein kinase C beta type (Homo sapiens, UniProt P05771). Briefly: Inhibition of recombinant PKCbeta (unknown origin).
Experiment [16] deals with Protein-tyrosine kinase 6 (Homo sapiens, UniProt Q13882). Kind of experiment: Inhibition of recombinant BRK (unknown origin).
Experiment [17] is described as follows: Inhibition of recombinant ABL (unknown origin). Further details: species or system Homo sapiens.
The target in experiment [18] is Vascular endothelial growth factor receptor 3 (Homo sapiens, UniProt P35916). Kind of experiment: Inhibition of recombinant VEGFR3 (unknown origin).
The nature of experiment [19]: Inhibition of recombinant AUR1 (unknown origin). Further details: species or system Homo sapiens.
For experiment [20], the target named is Mast/stem cell growth factor receptor Kit (Homo sapiens, UniProt P10721). Kind of experiment: Inhibition of recombinant KIT (unknown origin).
For experiment [21], the target named is Glycogen synthase kinase-3 beta (Homo sapiens, UniProt P49841). Kind of experiment: Inhibition of recombinant GSK3beta (unknown origin).
The target of experiment [22] is Proto-oncogene tyrosine-protein kinase receptor Ret (Homo sapiens, UniProt P07949). Kind of experiment: Inhibition of recombinant RET (unknown origin).
Experiment [23] is described as follows: Inhibition of recombinant SULU1 (unknown origin). Also noted: species or system Homo sapiens.
Experiment [24] concerns the target Maternal embryonic leucine zipper kinase (Homo sapiens, UniProt Q14680). Kind of experiment: Inhibition of recombinant MELK (unknown origin).
Experiment [25] has as its target Eukaryotic elongation factor 2 kinase (Homo sapiens, UniProt O00418). Kind of experiment: Inhibition of recombinant EEF2K (unknown origin).
Experiment [26] deals with Tyrosine-protein kinase JAK1 (Homo sapiens, UniProt P23458). Briefly: Inhibition of recombinant JAK1 (unknown origin).
The target of experiment [27] is Casein kinase 2 (Homo sapiens, UniProt P67870+P68400+P19784+Q8NEV1). Briefly: Inhibition of recombinant CK2 (unknown origin). It counts as protein assay.
The target in experiment [28] is RAC-alpha serine/threonine-protein kinase (Homo sapiens, UniProt P31749). Kind of experiment: Inhibition of recombinant AKT1 (unknown origin).
The target in experiment [29] is Tyrosine-protein kinase JAK3 (Homo sapiens, UniProt P52333). Briefly: Inhibition of recombinant JAK3 (unknown origin).
The target of experiment [30] is Mitotic checkpoint serine/threonine-protein kinase BUB1 (Homo sapiens, UniProt O43683). Kind of experiment: Inhibition of recombinant BUB1 (unknown origin).
For experiment [31], the target named is MAP kinase-activated protein kinase 2 (Homo sapiens, UniProt P49137). Briefly: Inhibition of recombinant MAPKAPK2 (unknown origin).
The target of experiment [32] is Serine/threonine-protein kinase NIM1 (Homo sapiens, UniProt Q8IY84). Kind of experiment: Inhibition of recombinant NIM1 (unknown origin).
In experiment [33] the target is Serine/threonine-protein kinase Chk1 (Homo sapiens, UniProt O14757). Kind of experiment: Inhibition of recombinant CHK1 (unknown origin).
Experiment [34] has as its target Fibroblast growth factor receptor 1 (Homo sapiens, UniProt P11362). Briefly: Inhibition of recombinant FGFR1 (unknown origin).
In experiment [35] the target is Non-receptor tyrosine-protein kinase TYK2 (Homo sapiens, UniProt P29597). Kind of experiment: Inhibition of recombinant TYK 2 (unknown origin).
Experiment [36] concerns the target Serine/threonine-protein kinase 26 (Homo sapiens, UniProt Q9P289). Kind of experiment: Inhibition of recombinant MST4 (unknown origin).
Experiment [37] addresses Inhibitor of nuclear factor kappa-B kinase subunit beta (Homo sapiens, UniProt O14920). Briefly: Inhibition of recombinant IKK2 (unknown origin).
The target in experiment [38] is ALK tyrosine kinase receptor (Homo sapiens, UniProt Q9UM73). Kind of experiment: Inhibition of recombinant ALK (unknown origin).
For experiment [39], the target named is Serine/threonine-protein kinase Nek6 (Homo sapiens, UniProt Q9HC98). Briefly: Inhibition of recombinant NEK6 (unknown origin).
Experiment [40] addresses Vascular endothelial growth factor receptor 2 (Homo sapiens, UniProt P35968). Briefly: Inhibition of recombinant VEGFR2 (unknown origin).
The target in experiment [41] is CDC7/DBF4 (Cell division cycle 7-related protein kinase/Activator of S phase kinase) (Homo sapiens, UniProt O00311). Kind of experiment: Inhibition of recombinant CDC7/DBF4 (unknown origin). It counts as protein-complex assay.
Experiment [42] concerns the target Tyrosine-protein kinase ZAP-70 (Homo sapiens, UniProt P43403). Briefly: Inhibition of recombinant ZAP70 (unknown origin).
The target in experiment [43] is Tyrosine-protein kinase Lyn (Homo sapiens, UniProt P07948). Briefly: Inhibition of recombinant LYN (unknown origin).
Experiment [44] addresses Serine/threonine-protein kinase haspin (Homo sapiens, UniProt Q8TF76). Kind of experiment: Inhibition of recombinant Haspin (unknown origin).
The target of experiment [45] is Serine/threonine-protein kinase PAK 4 (Homo sapiens, UniProt O96013). Kind of experiment: Inhibition of recombinant PAK4 (unknown origin).
The target of experiment [46] is Eukaryotic translation initiation factor 2-alpha kinase 3 (Homo sapiens, UniProt Q9NZJ5). Kind of experiment: Inhibition of recombinant PERK (unknown origin).

Each structure is given as a SMILES string.

Sequence of Eukaryotic elongation factor 2 kinase (O00418 whole entry): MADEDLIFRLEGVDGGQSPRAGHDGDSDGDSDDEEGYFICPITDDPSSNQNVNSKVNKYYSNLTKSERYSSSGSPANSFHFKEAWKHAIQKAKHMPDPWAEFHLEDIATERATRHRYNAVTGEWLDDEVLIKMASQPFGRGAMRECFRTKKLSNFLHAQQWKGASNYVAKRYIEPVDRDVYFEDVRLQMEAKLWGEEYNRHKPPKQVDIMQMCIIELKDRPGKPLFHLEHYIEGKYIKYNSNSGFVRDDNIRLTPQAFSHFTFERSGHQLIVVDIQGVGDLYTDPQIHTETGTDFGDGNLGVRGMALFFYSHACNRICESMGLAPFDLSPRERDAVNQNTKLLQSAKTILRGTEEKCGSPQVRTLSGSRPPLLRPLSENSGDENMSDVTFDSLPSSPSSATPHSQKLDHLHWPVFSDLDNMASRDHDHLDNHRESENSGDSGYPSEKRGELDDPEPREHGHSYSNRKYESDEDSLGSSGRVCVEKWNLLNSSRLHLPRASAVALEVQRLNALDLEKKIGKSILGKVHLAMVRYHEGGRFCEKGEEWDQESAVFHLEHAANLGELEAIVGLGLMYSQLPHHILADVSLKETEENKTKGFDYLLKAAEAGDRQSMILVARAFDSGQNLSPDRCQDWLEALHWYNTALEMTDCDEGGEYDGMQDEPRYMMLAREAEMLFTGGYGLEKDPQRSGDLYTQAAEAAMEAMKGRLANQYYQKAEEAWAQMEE
Sequence of Eukaryotic translation initiation factor 2-alpha kinase 3 (Q9NZJ5 whole entry): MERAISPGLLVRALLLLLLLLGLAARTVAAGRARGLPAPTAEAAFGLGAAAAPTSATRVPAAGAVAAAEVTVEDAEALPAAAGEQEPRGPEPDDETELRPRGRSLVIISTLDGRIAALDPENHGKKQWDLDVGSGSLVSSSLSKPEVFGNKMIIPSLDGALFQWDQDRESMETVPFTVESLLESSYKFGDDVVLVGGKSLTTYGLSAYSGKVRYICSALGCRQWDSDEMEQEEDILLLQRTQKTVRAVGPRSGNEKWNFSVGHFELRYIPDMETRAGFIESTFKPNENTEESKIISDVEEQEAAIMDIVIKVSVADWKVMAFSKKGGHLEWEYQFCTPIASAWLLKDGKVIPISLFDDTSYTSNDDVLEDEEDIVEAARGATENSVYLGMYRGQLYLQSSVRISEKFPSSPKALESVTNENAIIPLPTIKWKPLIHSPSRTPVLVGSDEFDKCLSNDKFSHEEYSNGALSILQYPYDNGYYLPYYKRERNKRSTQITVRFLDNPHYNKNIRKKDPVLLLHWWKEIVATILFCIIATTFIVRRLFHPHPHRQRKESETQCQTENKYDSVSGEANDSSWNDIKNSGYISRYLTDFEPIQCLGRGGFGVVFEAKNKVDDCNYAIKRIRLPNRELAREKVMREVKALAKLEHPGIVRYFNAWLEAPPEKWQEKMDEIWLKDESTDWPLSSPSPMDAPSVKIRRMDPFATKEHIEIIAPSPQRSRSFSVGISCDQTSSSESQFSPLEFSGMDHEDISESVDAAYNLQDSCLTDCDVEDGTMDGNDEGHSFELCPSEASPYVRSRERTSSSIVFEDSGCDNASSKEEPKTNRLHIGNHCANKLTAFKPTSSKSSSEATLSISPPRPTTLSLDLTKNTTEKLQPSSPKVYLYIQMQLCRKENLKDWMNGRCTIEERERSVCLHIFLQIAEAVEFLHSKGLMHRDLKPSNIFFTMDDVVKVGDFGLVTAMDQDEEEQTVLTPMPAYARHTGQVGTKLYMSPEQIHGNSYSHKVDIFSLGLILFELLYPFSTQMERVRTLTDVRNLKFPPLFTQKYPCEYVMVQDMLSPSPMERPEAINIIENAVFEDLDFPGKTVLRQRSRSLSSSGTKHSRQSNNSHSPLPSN
Sequence of Serine/threonine-protein kinase PLK1 (P53350 whole entry): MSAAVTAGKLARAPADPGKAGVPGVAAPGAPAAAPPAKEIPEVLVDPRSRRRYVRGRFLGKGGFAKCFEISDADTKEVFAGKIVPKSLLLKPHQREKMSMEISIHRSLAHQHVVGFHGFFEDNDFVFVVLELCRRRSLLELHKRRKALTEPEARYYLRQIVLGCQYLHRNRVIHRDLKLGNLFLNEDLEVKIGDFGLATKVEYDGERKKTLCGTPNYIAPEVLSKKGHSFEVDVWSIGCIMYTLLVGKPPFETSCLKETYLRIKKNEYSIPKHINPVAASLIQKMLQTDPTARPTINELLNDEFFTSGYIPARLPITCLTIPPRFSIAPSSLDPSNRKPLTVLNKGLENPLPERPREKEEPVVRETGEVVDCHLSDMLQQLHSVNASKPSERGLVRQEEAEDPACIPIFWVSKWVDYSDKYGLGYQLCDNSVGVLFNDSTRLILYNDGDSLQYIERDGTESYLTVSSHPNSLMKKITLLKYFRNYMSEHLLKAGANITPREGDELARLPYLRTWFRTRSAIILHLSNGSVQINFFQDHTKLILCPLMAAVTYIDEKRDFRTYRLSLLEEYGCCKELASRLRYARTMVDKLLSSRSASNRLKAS
Sequence of Inhibitor of nuclear factor kappa-B kinase subunit beta (O14920 whole entry): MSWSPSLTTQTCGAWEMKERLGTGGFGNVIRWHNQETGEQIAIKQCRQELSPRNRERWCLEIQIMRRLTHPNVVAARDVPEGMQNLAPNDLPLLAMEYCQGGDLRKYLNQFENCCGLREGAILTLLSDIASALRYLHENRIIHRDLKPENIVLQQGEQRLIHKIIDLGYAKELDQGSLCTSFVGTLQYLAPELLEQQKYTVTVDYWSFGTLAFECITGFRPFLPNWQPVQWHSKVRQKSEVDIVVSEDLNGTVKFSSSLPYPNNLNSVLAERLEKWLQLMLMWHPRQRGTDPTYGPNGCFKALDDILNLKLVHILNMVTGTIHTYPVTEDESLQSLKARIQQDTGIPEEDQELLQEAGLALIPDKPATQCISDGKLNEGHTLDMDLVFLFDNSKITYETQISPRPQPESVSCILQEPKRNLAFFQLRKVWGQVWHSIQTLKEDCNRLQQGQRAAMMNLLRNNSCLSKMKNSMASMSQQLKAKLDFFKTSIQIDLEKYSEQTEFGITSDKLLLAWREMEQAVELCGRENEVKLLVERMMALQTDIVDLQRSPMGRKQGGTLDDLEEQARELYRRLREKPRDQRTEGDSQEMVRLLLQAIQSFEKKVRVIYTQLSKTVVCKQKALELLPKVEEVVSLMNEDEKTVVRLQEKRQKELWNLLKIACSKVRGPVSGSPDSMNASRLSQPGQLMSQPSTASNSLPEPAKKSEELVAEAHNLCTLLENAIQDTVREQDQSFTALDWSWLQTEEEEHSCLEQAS
Sequence of Protein kinase C beta type (P05771 whole entry): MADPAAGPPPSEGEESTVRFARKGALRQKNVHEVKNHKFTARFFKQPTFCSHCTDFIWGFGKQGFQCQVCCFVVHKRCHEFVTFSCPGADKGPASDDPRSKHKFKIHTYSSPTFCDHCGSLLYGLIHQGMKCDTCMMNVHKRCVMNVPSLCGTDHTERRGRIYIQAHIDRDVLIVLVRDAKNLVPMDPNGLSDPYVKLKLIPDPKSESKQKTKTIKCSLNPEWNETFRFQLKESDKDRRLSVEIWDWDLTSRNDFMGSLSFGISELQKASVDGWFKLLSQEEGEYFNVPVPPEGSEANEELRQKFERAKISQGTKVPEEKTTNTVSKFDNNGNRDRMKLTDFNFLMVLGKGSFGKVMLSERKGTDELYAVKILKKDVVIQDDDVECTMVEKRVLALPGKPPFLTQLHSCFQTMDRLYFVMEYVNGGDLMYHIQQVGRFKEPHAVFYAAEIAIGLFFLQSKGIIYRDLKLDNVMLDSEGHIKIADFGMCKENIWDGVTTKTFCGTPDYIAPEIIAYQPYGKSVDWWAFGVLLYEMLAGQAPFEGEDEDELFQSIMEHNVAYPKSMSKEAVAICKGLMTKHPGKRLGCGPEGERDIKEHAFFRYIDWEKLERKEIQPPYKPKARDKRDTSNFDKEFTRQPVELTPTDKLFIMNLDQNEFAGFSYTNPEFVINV
Sequence of Mitotic checkpoint serine/threonine-protein kinase BUB1 (O43683 whole entry): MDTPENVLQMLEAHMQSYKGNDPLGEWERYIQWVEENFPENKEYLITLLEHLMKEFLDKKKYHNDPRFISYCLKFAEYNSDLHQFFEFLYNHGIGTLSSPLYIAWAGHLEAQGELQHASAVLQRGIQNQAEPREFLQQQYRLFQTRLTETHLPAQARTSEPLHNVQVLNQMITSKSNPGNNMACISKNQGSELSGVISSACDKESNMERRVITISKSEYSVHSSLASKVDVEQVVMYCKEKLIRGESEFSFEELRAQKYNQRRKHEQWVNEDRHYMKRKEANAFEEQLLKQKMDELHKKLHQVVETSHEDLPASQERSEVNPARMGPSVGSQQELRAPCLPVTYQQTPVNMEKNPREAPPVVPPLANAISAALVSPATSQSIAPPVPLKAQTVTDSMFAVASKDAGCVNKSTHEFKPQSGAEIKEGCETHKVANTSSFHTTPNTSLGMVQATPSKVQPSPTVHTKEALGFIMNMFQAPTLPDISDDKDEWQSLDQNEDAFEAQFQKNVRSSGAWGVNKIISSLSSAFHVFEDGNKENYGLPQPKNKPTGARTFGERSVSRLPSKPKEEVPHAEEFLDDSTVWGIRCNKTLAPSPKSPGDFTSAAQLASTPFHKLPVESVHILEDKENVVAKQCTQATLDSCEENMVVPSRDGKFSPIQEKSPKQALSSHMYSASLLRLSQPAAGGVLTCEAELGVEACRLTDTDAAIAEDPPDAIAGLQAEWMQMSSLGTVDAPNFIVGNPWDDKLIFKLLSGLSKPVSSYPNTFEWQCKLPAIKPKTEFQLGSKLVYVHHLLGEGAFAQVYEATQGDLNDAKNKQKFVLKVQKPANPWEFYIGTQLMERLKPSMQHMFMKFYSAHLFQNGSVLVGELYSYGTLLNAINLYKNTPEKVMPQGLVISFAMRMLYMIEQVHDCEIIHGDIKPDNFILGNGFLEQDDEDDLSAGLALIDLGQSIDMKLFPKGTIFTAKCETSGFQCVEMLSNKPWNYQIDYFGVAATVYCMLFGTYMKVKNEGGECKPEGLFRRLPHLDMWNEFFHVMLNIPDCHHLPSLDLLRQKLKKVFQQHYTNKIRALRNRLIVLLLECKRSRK

Usually EC50 stands for the concentration that produces a half-maximal response. As to `Cn1c2ccccc2c2c3c(c4c5ccccc5n(CCC#N)c4c21)CNC3=O` [GO-6976], the EC50 in experiment [1] (u2os) turned out to be 1990 nM.
Broadly, the IC50 is the point on the concentration scale where inhibition reaches its midpoint. Take `O=C1c2ccccc2-c2n[nH]c3cccc1c23`: the IC50 is > 10000 nM in experiment [2]; 4010 nM in experiment [3]; 3860 nM in experiment [4]; 3280 nM in [5]; 2290 nM in [6]; > 10000 nM in experiment [7]. Also, the IC50 in experiment [8] is 190 nM; in [9] it was > 10000 nM; in experiment [10] it was 70 nM; in experiment [11] it was 90 nM; in experiment [12] it was 1950 nM; in [13], > 10000 nM. Besides, the IC50 was 1050 nM in experiment [14]; > 10000 nM in [15]; > 10000 nM in [16]; > 10000 nM in experiment [17]; 300 nM in experiment [18]; 60 nM in experiment [19]. The half-inhibitory concentration (IC50) in experiment [20] was 870 nM; in experiment [21], > 10000 nM; in [22], 1090 nM; in experiment [23] it was > 10000 nM; in experiment [24], 110 nM; in experiment [25], > 10000 nM. Besides, the IC50 in [26] was 4650 nM; in experiment [27], 650 nM; in experiment [28] it was > 10000 nM; in experiment [29] it was 410 nM; in experiment [30], > 10000 nM; in experiment [31], > 10000 nM. Besides, the 50% inhibitory concentration (IC50) in experiment [32] was > 10000 nM; in experiment [33], > 10000 nM; in experiment [34] it was 2400 nM; in [35], 880 nM; in experiment [36], > 10000 nM; in experiment [37] it was 1020 nM. Also, the concentration for half-maximal inhibition (IC50) in experiment [38] is > 10000 nM; in [39], > 10000 nM; in [40], 2930 nM; in experiment [41] it was 1590 nM; in experiment [42], > 10000 nM; in experiment [43], > 10000 nM. For the same molecule, the values for the half-maximal inhibitory concentration (IC50) in experiment [44], in experiment [45] and in experiment [46] were 510 nM, > 10000 nM and > 10000 nM, respectively. The half-maximal effective concentration (EC50) in [1] was found to be 8980 nM.
For `COc1cc2c(Nc3ccc(NC(=O)c4ccccc4)cc3)ncnc2cc1OCCCN1CCOCC1`, the EC50 in [1] (u2os) amounted to 2280 nM.
